This is an account of results in US7750013B2, “N-oxides as prodrugs of piperazine and piperidine derivatives” (Solvay Pharmaceuticals, B.V., priority 2005, dated 2010).

The target of data set [1] is Dopamine-D2S (Homo sapiens, UniProt P14416). The data set is described as follows: In vitro receptor affinity, Dopamine-D2S. The class given is binding. The protocol: (§1) The binding data collected in the table below (Example 5: pharmacological test results) were either obtained by CEREP (128, rue Danton, 92500 Rueil-Malmaison, France) or at Solvay Pharmaceuticals B.V. (C. J. van Houtenlaan 36, 1381 CP Weesp, The Netherlands), using well documented standard procedures. The affinities for dopamine-D2 and 5-HT1A receptors for instance, was measured as described by Creese I, Schneider R and Snyder S H, [^3H]-Spiroperidol labels dopamine receptors in rat pituitary and brain, Eur J Pharmacol […], 46: 377-381 and Gozlan H, El Mestikawy S, Pichat L, Glowinsky J and Hamon M, 1983, Identification of presynaptic serotonin autoreceptors using a new ligand ^3H-PAT, Nature 1983, 305: 140-142.
Sequence of Dopamine-D2S (P14416 1-414 isoform P14416-2): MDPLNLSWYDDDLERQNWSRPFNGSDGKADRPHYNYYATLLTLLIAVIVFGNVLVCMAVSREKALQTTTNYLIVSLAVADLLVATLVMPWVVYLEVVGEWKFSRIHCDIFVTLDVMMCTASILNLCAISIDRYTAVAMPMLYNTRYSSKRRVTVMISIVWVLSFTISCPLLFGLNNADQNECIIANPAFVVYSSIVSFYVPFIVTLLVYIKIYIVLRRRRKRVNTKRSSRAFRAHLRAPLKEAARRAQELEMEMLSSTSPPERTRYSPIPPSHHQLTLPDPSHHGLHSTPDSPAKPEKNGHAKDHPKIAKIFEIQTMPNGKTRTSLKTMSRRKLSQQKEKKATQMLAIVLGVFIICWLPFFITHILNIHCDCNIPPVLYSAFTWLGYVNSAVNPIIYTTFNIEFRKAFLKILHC

Data set [2] has as its target Dopamine-D5 (Homo sapiens, UniProt P21918). The data set is described as follows: In vitro receptor affinity, Dopamine-D5. It is filed as binding. Here is the method:
as §1

The target of data set [3] is 5-HT1A (Homo sapiens, UniProt P08908). The data set is described as follows: In vitro receptor affinity, 5-HT1A. It is filed as binding. The protocol:
as §1

In data set [4] the target is 5-HT1D. The experiment in a line: In vitro receptor affinity, 5-HT1D. The note with it: bovine; radioligand [3H]-serotonin. It is filed as binding. Here is the method:
as §1

Data set [5] has as its target 5-HT2A (Homo sapiens, UniProt P28223). The data set is described as follows: In vitro receptor affinity, 5-HT2A. The class given is binding. The protocol: as §1
In data set [6] the target is 5-HT3 (Rattus norvegicus, UniProt P35563). The experiment in a line: In vitro receptor affinity, 5-HT3. The class given is binding. The protocol:
as §1

In data set [7] the target is 5-HT7 (Homo sapiens, UniProt P34969). The experiment in a line: In vitro receptor affinity, 5-HT7. It is filed as binding. The protocol:
as §1

Data set [8] addresses α1-adrenergic. The data set is described as follows: In vitro receptor affinity, α1-adrenergic. It is filed as binding. The note with it: rat; radioligand [3H]-prazosin. The protocol:
as §1

Data set [9] deals with α1B-adrenergic (Rattus norvegicus, UniProt P15823). The data set is described as follows: In vitro receptor affinity, α1B-adrenergic. It is filed as binding. Here is the method:
as §1

Data set [10] concerns the target α2-adrenergic. The experiment in a line: In vitro receptor affinity, α2-adrenergic. The class given is binding. The note with it: rat; radioligand [3H]-RX 821002. The protocol:
as §1

The target in data set [11] is α2C-adrenergic (Homo sapiens, UniProt P18825). The experiment in a line: In vitro receptor affinity, α2C-adrenergic. The class given is binding. Here is the method: as §1
Sequence of α2C-adrenergic (P18825 whole entry): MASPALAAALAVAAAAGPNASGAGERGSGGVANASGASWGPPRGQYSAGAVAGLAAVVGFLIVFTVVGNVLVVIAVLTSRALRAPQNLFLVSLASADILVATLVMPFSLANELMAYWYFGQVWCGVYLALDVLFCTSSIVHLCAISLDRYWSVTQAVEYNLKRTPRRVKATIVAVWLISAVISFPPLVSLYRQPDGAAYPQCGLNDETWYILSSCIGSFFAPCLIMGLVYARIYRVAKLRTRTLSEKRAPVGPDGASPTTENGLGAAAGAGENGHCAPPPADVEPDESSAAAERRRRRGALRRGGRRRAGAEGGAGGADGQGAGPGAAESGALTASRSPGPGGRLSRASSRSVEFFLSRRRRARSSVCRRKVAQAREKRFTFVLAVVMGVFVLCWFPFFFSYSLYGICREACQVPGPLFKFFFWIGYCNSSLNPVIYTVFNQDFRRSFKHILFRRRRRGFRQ
The target in data set [12] is β1-adrenergic (Homo sapiens, UniProt P08588). The data set is described as follows: In vitro receptor affinity, β1-adrenergic. The class given is binding. Here is the method: as §1
Sequence of β1-adrenergic (P08588 whole entry): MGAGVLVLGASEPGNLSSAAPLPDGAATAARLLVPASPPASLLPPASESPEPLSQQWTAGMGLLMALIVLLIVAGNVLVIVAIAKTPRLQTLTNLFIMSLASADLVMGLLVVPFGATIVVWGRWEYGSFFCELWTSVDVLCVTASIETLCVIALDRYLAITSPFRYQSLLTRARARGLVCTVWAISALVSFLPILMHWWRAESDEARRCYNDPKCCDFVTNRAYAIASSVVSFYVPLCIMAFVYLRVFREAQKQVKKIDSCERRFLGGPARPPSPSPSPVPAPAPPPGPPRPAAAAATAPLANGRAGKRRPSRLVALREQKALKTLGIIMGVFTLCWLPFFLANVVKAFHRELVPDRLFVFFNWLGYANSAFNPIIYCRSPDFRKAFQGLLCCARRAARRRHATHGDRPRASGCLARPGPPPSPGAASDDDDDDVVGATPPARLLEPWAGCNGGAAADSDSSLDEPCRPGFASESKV
In data set [13] the target is β2-adrenergic (Homo sapiens, UniProt P07550). The experiment in a line: In vitro receptor affinity, β2-adrenergic. The class given is binding. The protocol:
as §1

In data set [14] the test system is Dopamine-D2 receptor. The experiment in a line: Apomorphine-induced climbing behaviour in mice. The class given is in vivo. Here is the method: In Vivo Animal Model for Dopamine-D2 Receptor (Ant)Agonistic Activity
Apomorphine-induced climbing behaviour in mice (Costall B, Naylor R J and Nohria V, Differential actions of typical and atypical agents on two behavioural effects of apomorphine in the mouse, Brit J Pharmacol 1978, 63: 381-382).
For oral (p.o.) administration: to the desired quantity (0.5-5 mg) of the solid test compound in a glass tube, some glass beads were added and the solid was milled by vortexing for 2 minutes. After addition of 1 ml of a solution of 1% methylcellulose in water and 2% (v/v) of Poloxamer 188 (Lutrol F68), the compound was suspended by vortexing for 10 minutes. The pH was adjusted to 7. Remaining particles in the suspension were further suspended by using an ultrasonic bath.
For intravenous (i.v.) administration: compounds were dissolved in physiological saline (0.9% NaCl) and the pH was adjusted to 7.

Data set [15] deals with 6-OH-dopamine induced turning behavior in rats. The experiment in a line: 6-OH-dopamine induced turning behavior in rats. It is filed as in vivo. The note with it: Rattus norvegicus, po, read-out: Antagonism of 6-OH dopamine induced turning behavior after oral dosing: ED50. The protocol: 6-OH-dopamine induced turning behavior in rats (Ungerstedt U, 6-OH-DA induced degeneration of central monoamine neurons, Eur. J. Pharmacol. 1968 5: 107-110). Specifically:
Male rats (Wistar, Harlan, Netherlands; 400-500 g at time of experiment) are housed in a temperature (20-21±2° C.) and humidity controlled environment and receive water ad libitum except during experimental sessions. Food is restricted to approximately 15 g per rat per day. A 12-hour light-dark cycle (lights on 07.00-19.00 hour) is used. All experimental procedures are conducted in accordance with Dutch law and conform to local animal care and use committee stipulations.
Unilateral 6-hydroxydopamine (6-OHDA) lesions of the substantia nigra zona compacta are performed using a stereotaxic procedure. […] Good turning rats are defined as those which elicited at least 20 contralateral turns following amphetamine (2.5 mg/kg sc) in the 5 min time epoch beginning 25 min after administration and a mean of at least 20 contralateral turns recorded over a 30 min period after administration of apomorphine (0.25 mg/kg s.c.). […]
Following statistical randomization of the treatment groups rats are pretreated with compounds of the invention (0.1-3 mg/kg p.o.) or vehicle (2 ml/kg) and placed in the rotameters the contralateral rotational behaviour is then measured. […]

Sequence of Dopamine-D5 (P21918 whole entry): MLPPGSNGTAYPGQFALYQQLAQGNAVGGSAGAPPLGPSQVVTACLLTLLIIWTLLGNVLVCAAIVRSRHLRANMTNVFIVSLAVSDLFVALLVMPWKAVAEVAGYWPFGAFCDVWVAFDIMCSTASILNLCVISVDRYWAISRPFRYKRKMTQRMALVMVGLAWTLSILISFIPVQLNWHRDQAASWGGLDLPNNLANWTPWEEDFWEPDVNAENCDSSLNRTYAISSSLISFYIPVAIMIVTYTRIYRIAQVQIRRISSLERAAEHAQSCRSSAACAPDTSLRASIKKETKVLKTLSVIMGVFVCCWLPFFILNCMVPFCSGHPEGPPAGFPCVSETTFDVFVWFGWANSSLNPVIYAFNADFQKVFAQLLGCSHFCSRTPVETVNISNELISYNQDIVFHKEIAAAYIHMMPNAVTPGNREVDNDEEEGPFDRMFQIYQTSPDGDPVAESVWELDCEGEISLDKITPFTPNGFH
Sequence of 5-HT7 (P34969 whole entry): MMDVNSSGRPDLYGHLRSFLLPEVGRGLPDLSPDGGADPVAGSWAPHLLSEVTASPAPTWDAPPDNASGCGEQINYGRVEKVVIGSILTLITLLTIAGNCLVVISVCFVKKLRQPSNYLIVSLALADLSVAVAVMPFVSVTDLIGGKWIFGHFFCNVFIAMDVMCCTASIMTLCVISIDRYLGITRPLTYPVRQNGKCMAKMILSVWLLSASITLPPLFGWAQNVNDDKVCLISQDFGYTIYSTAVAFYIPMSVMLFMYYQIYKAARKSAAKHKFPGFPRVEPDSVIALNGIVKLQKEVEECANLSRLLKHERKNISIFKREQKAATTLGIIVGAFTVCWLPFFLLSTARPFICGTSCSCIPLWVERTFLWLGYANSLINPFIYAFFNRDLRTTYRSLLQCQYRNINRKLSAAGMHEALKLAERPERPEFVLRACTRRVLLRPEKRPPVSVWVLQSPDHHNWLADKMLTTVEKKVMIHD
Sequence of β2-adrenergic (P07550 whole entry): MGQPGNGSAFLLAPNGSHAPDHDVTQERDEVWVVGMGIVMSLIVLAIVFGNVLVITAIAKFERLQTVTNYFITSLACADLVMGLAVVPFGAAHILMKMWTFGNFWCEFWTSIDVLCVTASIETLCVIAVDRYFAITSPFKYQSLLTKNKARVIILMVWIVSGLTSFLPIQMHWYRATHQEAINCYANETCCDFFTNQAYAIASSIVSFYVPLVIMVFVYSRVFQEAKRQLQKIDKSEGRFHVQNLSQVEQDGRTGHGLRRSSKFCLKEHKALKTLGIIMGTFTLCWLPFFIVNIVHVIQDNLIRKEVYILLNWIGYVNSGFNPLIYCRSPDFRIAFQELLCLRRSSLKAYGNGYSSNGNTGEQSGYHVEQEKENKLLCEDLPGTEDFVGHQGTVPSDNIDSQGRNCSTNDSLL
Sequence of 5-HT3 (P35563 24-483): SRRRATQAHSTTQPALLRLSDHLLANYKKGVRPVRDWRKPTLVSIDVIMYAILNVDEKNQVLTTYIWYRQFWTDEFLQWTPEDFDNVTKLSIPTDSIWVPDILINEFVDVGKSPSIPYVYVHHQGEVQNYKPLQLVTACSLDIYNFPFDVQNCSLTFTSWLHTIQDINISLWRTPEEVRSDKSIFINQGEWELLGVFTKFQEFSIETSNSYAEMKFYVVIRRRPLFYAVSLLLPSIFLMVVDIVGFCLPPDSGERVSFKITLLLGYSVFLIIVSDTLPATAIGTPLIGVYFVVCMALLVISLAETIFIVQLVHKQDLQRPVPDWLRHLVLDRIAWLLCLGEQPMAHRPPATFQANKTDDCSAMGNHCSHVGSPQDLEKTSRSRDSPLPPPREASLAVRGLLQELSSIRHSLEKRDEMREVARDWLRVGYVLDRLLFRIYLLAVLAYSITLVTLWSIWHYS
Sequence of α1B-adrenergic (P15823 whole entry): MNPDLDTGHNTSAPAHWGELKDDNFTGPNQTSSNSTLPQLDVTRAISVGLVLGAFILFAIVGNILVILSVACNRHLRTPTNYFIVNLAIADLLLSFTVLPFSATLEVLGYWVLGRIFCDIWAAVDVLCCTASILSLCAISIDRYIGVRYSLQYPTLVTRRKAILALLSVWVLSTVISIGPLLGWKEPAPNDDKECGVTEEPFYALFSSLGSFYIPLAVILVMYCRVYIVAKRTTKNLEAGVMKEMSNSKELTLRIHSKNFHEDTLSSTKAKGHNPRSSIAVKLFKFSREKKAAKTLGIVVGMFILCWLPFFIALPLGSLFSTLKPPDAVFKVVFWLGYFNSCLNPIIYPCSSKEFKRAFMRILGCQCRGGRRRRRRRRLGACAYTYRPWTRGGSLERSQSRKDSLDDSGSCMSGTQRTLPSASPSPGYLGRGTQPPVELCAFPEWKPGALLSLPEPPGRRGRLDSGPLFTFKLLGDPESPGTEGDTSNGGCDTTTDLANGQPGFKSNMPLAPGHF
Sequence of 5-HT1A (P08908 whole entry): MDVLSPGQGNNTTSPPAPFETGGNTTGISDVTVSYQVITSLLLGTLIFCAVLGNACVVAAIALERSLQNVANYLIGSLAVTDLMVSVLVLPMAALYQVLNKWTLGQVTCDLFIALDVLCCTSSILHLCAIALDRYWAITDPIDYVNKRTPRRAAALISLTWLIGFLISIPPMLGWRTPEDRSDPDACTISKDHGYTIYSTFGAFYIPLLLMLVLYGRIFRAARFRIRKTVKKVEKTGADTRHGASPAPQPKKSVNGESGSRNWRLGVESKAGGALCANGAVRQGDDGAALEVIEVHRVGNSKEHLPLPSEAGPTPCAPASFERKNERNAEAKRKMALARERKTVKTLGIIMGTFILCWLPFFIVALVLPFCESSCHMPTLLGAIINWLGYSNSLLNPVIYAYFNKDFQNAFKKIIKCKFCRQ
Sequence of 5-HT2A (P28223 whole entry): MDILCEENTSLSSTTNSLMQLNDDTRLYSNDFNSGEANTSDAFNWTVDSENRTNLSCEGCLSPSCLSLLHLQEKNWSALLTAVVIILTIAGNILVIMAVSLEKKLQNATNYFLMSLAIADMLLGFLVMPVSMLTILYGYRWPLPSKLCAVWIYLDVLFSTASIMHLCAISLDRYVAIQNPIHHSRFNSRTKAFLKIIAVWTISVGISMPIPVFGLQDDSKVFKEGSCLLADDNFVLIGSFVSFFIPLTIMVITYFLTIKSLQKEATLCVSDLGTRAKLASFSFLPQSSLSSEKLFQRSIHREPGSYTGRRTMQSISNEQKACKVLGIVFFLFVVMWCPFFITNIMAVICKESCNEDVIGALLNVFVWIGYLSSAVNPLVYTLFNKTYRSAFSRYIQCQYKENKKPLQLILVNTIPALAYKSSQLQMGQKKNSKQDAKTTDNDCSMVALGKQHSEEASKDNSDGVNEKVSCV

As for `C[N+]1([O-])CCN(c2cccc3[nH]c(=O)oc23)CC1` [N-oxide of SLV308, N-Oxide of SLV308], the melting point (in general, the temperature of the solid-liquid transition) was 242 to 243 °C. In addition, the inhibitory constant (Ki) (as a rule, the dissociation constant of the complex between target and ligand, obtained from inhibition or displacement) in [1] was greater than 1 µM. The same molecule came in with a Ki in data set [2] greater than 1 µM. The same molecule gave an inhibition constant (Ki) in data set [3] of 0.2 µM. Moreover, the inhibitory constant (Ki) in [4] was greater than 1 µM. The same molecule gave an inhibition constant Ki in data set [5] greater than 1 µM. Besides, in [6], the Ki was greater than 1 µM. Further, the Ki in data set [7] is greater than 1 µM. This molecule also showed a Ki in data set [8] greater than 1 µM. The same molecule gave an inhibition constant Ki in data set [9] of 0.4 µM. The molecule also came in with a Ki in data set [10] of 0.5 µM. This molecule registered an inhibition constant (Ki) in data set [11] of 0.4 µM. In [12], the inhibition constant Ki is greater than 1 µM. In data set [13], this molecule registered a Ki greater than 1 µM. Further, in [14] (administered intravenously), the “In vivo activity compared with the parent compound (in words)” value was “approximately one tenth of the activity of the parent compound”. Moreover, the “Antagonism of apomorphine induced climbing behavior after intravenous dosing: ED50” value in data set [14] (mice, i.v.) stood at 0.90 mg/kg. In addition, in data set [14] (mice, oral), the “Antagonism of apomorphine induced climbing behavior after oral dosing: ED50” value came to 0.79 mg/kg. In addition, in data set [14] (oral administration), the “In vivo activity compared with the parent compound (in words)” value was “equipotent with SLV308”. Also, in [15], the ED50 – broadly, the dose at which the effect has come halfway, by size or by number of responders – was less than 1 mg/kg.
